Experimental data published in patent US5162203A, “Methods of measuring isozymes and isozyme classes of alcohol dehydrogenase” (President and Fellows of Harvard College, priority 1989, dated 1992).

What was measured:
αβ1 ADH (Class I) = molecular target: T1, αβ1 ADH (Class I) (Homo sapiens, UniProt P00325+P07327); experiment: Kinetics of enzymatic reduction of methoxynaphthaldehydes by αβ1 ADH; type: biochemical; conditions: rate relative to ethanol oxidation at pH 10.0
T1 construct: beta1 allele (ADH1B*1, Arg47 and Arg369 in mature count)
T1 sequence (P07327 2-375): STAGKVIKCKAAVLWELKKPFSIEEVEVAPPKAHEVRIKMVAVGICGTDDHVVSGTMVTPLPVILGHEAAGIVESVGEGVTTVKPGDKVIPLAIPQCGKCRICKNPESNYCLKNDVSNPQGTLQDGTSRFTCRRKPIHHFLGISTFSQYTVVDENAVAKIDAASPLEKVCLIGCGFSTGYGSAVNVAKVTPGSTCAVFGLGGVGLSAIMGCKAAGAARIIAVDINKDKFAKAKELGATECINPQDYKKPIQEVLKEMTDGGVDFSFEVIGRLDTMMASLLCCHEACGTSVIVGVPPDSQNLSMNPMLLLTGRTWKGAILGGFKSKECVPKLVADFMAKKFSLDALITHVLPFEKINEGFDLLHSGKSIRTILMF
T1 sequence (P00325 2-375): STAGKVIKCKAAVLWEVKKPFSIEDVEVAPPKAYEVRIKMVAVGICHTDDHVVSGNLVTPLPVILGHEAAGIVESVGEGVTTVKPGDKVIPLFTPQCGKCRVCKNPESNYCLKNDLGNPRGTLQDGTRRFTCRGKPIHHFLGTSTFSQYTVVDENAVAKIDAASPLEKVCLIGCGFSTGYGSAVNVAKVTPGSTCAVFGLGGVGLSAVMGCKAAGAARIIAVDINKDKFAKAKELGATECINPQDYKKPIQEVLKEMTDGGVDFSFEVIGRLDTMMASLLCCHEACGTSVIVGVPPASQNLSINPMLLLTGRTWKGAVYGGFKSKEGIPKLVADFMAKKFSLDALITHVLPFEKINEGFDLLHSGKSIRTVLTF
Description: (§1) Standard assays for ethanol oxidation activity (Dalziel, 1957, Acta Chem Scand 11:1706-23) were carried out on a Cary 219 spectrophotometer interfaced with an Apple IIe microcomputer, using software provided by Varian Associates. The reaction mixture contained 2.5 mM NAD^+ in 0.1M glycine-NaOH buffer. pH 10.0, and 33 mM or 0.2M ethanol for Class I and Class II ADH, respectively.
(§2) Aldehyde reduction was monitored by following the decrease of absorption at 340 nm in 40 mM Mes buffer, pH 7.1. in the presence of saturating NADH, 50 μM for Class I and 100 μM for Class II. […] Initial reaction rates were measured and kinetic parameters determined by conventional procedures as described by Segel, 1975, Enzyme Kinetics, pp. 591-597, Wiley, N.Y. […]
(§3) The linear increase of fluorescence was then recorded for 1-10 minutes, until 0.03-1 μM of substrate was consumed. […] The added product fluorescence intensity was then measured Fluorescence measurements were optimized for samples with low activity (<1 nM/minute). […] Rates measured in the presence of the 0.2 mM ADH inhibitors. […]
(§4) Additionally the reaction rates for these isozymes were compared to those measured by the standard assay for ethanol oxidation (see part 7 above) at pH 10.0 the optimum for oxidation of ethanol by ADH. […]

αγ1 ADH (Class I) = molecular target: T2, αγ1 ADH (Class I) (Homo sapiens, UniProt P00326+P07327); experiment: Kinetics of enzymatic reduction of methoxynaphthaldehydes by αγ1 ADH; type: biochemical; conditions: rate relative to ethanol oxidation at pH 10.0
T2 construct: gamma1 allele (ADH1C*1, Arg271 and Ile349 in mature count)
T2 sequence (P07327 2-375): as the sequence (P07327 2-375) above
T2 sequence (P00326 2-375): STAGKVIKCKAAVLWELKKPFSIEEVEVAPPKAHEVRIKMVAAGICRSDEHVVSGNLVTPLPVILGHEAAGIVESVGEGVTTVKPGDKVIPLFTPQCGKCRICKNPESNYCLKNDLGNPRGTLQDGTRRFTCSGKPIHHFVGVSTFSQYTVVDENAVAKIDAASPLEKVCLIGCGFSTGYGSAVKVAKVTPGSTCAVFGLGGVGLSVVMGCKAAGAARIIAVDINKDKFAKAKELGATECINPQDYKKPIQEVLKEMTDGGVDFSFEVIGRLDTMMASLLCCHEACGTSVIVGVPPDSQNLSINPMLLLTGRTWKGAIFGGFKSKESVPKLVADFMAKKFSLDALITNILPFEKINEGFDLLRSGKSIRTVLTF

β1 γ1 ADH (Class I) = molecular target: T3, β1 γ1 ADH (Class I) (Homo sapiens, UniProt P00325+P00326); experiment: Kinetics of enzymatic reduction of methoxynaphthaldehydes by β1γ1 ADH; type: biochemical; conditions: rate relative to ethanol oxidation at pH 10.0
T3 construct: beta1 (ADH1B*1) and gamma1 (ADH1C*1) alleles
T3 sequence (P00325 whole entry): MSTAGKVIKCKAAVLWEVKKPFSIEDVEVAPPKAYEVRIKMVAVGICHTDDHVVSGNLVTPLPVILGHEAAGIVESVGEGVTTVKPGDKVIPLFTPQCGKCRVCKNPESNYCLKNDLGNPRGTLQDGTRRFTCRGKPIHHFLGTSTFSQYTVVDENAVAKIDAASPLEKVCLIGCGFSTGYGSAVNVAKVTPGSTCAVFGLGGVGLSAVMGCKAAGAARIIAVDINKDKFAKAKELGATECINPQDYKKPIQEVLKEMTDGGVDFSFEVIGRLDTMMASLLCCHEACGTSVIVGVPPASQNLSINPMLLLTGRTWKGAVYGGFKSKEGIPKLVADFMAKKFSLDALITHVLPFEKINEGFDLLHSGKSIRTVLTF
T3 sequence (P00326 whole entry): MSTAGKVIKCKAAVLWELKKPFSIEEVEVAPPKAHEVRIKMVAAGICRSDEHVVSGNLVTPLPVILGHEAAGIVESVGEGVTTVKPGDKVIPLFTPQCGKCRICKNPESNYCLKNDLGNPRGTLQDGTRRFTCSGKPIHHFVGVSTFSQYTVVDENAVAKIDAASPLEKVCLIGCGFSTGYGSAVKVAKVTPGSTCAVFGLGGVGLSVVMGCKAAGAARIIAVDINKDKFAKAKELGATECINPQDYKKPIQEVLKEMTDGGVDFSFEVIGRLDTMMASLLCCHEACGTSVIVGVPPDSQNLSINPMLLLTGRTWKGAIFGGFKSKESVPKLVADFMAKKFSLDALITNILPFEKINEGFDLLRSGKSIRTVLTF

β1 γ2 ADH (Class I) = molecular target: T4, β1 γ2 ADH (Class I) (Homo sapiens, UniProt P00325+P00326, I350V/R272Q); experiment: Kinetics of enzymatic reduction of methoxynaphthaldehydes by β1γ2 ADH; type: biochemical; conditions: rate relative to ethanol oxidation at pH 10.0
T4 construct: beta1 (ADH1B*1) and gamma2 (ADH1C*2) alleles
T4 sequence (P00325 2-375, stated change not applied): as the sequence (P00325 2-375) above
T4 sequence (P00326 2-375 R272Q/I350V): as the sequence (P00326 2-375) above, with R271Q, I349V counted along it
Description: as §1, §2, §3, §4

γ1 γ1 ADH (Class I) = molecular target: T5, γ1 γ1 ADH (Class I) (Homo sapiens, UniProt P00326); experiment: Kinetics of enzymatic reduction of methoxynaphthaldehydes by γ1γ1 ADH; type: biochemical; conditions: rate relative to ethanol oxidation at pH 10.0
T5 construct: gamma1 allele (ADH1C*1, Arg271 and Ile349 in mature count)
T5 sequence (P00326 2-375): as the sequence (P00326 2-375) above

Class II (π) ADH = Class II (π) ADH (Homo sapiens, UniProt P08319); experiment: Kinetics of enzymatic reduction of methoxynaphthaldehydes by Class II ADH; type: biochemical; conditions: for v/v (EtOH): rate relative to ethanol oxidation at pH 10.0
Class II (π) ADH, sequence (P08319 whole entry): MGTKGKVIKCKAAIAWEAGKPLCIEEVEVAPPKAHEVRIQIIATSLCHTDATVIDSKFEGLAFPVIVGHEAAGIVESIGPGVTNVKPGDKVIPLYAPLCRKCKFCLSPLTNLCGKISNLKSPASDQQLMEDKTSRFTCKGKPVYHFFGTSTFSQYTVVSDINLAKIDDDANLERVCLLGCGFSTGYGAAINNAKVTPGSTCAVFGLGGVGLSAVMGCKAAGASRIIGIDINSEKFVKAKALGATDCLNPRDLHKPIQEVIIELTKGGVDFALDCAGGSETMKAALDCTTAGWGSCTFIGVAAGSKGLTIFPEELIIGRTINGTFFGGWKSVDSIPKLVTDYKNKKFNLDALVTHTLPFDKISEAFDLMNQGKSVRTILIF

Horse ADH = experiment: Kinetics of enzymatic reduction of methoxynaphthaldehydes by horse ADH; type: biochemical; conditions: for Km / kcat: pH 7.0, 50 μM NADH, spectrophotometric, >90% EE isozyme; for v/v (EtOH): rate relative to ethanol oxidation at pH 10.0
Description: Crystalline horse ADH was purchased from Boehringer-Mannheim (Indianapolis,Ind.). NAD^+ and NADH, both grade III, were obtained as preweighed samples from Sigma Chemical Co. (St. Louis, Mo.); isobutyramide was from Aldrich., ethanol (100%) was from U.S. Industrial Chemicals Co. (New York, N.Y.); Mes acid (2-(N-morpholino)ethanesulfonic acid) was recrystallized from water. All other reagents were of analytical grade. Deionized, glass-distilled water was used throughout.
as §1, §2
(§5) Additionally the reaction rates for these isozymes were compared to those measured by the standard assay for ethanol oxidation (see part 7 above) at pH 10.0 the optimum for oxidation of ethanol by ADH. The rate of IA reduction for all Class I isozymes except the β1 β1 form is 1.5- to 4-fold faster than that of ethanol oxidation as measured by the conventional ethanol oxidation assay. […] Table III illustrates that IIA is an excellent substrate for Class II (.eta.) ADH, with a rate of IIA reduction at least 8-fold faster than that of ethanol oxidation.

Class I ADH = experiment: Kinetics of enzymatic reduction of methoxynaphthaldehydes by Class I ADH isozymes; type: biochemical, human; conditions: for kcat / Km: Table IV; for kcat: average for Class I isozymes except ββ forms; for Km: range over Class I isozymes
Description: (§6) Aldehyde reduction was monitored by following the decrease of absorption at 340 nm in 40 mM Mes buffer, pH 7.1. in the presence of saturating NADH, 50 μM for Class I and 100 μM for Class II. […] Initial reaction rates were measured and kinetic parameters determined by conventional procedures as described by Segel, 1975, Enzyme Kinetics, pp. 591-597, Wiley, N.Y.
(§7) All reaction mixtures (3 ml total volume) were prepared directly in 1 cm pathlength, 4 ml fluorometric cuvettes by adding 150 μl of the 300 μM substrate solution (e.g substrate IA or IIA) 100 μl of the 1 mM NADH solution (prepared as in part 5 above) and 2.69 ml of assay buffer (0.1M phosphate, pH 7.6). After thermal equilibration (25° C.) for 5 minutes, 60 μl of isozyme sample (either serum or purified ADH isozymes) was added to the cuvette.
The linear increase of fluorescence was then recorded for 1-10 minutes, until 0.03-1 μM of substrate was consumed. Larger substrate consumption was not found to be desirable (described in subpart (c) below). After this period the instrument sensitivity setting was reduced 10-30 fold, the signal compensated once again by zero suppression (see part 6 above), and 60 μl of 200-400 μM product (e.g., product IB or IIB) was added to provide an internal standard. The added product fluorescence intensity was then measured Fluorescence measurements were optimized for samples with low activity (<1 nM/minute). For samples with higher activity, repeat measurements were made with the serum volume reduced from 60 μl to 10 μl. Rates measured in the presence of the 0.2 mM ADH inhibitors. 4-MeP or 4-PeP, were made by adding 50 μl of 12 mM inhibitor to the cuvette prior to the assay buffer, and the reaction was carried out as above.
(§8) The rates of aldehyde reduction, determined as initial velocities (V) and expressed in units of nM/minute, were calculated according to: [formula] where the quantity in parentheses is the slope of the linear fluorescence increase calculated from the quantities Ft and FO, the fluorescence at time t and at the beginning of the reaction, respectively. Cst is the concentration of the product used as a standard added to the cuvette after the initial rate had been measured and Fst is the fluorescence intensity of the added product
as §5
The values for these constants were determined with purified Class II ADH or a mixture of purified Class I isozymes, under the fluorometric assay conditions described above in Example 1.

human ADH isozymes = experiment: Kinetics of enzymatic reduction of methoxynaphthaldehydes by ADH isozymes (general); type: biochemical
Description: as §6
as §7, with “After thermal equilibration (25° C.) for 5 minutes, 60 μl of isozyme sample (either serum or purified ADH isozymes) was added to the cuvette.” left out
as §3
as §8, with “Cst is the concentration of the product used as a standard added to the cuvette after the initial rate had been measured and Fst is the fluorescence intensity of the added product” left out

β1 β1 ADH (Class I) = experiment: Kinetics of enzymatic reduction of methoxynaphthaldehydes by β1β1 ADH; type: biochemical, human; conditions: pH 7.0, 50 μM NADH; spectrophotometric
[1] = pH 7.0, 50 μM NADH, spectrophotometric

Row | v/v (EtOH) (αβ1 ADH (Class I)) | v/v (EtOH) (αγ1 ADH (Class I)) | v/v (EtOH) (β1 γ1 ADH (Class I)) | v/v (EtOH) (β1 γ2 ADH (Class I)) | v/v (EtOH) (γ1 γ1 ADH (Class I)) | kcat (Class II (π) ADH; [1]) [s⁻¹] | v/v (EtOH) (Class II (π) ADH) | Km (Horse ADH) [µM] | Km (Class I ADH) [µM] | Km of most, in particular γ-containing Class I isozymes (human ADH isozymes) | Km (β1 β1 ADH (Class I)) [µM] | Compound | kcat (Horse ADH) [s⁻¹] | v/v (EtOH) (Horse ADH) | kcat (Class I ADH) [s⁻¹] | kcat (β1 β1 ADH (Class I)) [s⁻¹] | also measured
1 | 1.59 | 2.71 | 0.93 | 3.4 | 1.54 | 0.833 | 0.20 | 33 | 0.6 to 8.5 | close to or below 1 | 4 | COc1ccc(C=O)c2ccccc12 [IA, 4-methoxy-1-naphthaldehyde] | 0.433 | 0.04 | 5.83 | 0.033 | a: ratio of specific rates for Class I to Class II ADH with IA as substrate (Class I ADH; fluorometric assay conditions): 0.022
2 | 0.74 | 1.06 | 0.53 | 1.6 | 0.45 | 25 | 8.0 | 2.2 | 0.4 to 11.5 | close to or below 1 | 5.4 | COc1ccc2cc(C=O)ccc2c1 [IIA, 6-methoxy-2-naphthaldehyde] | 35.83 | 2.5 | 1.83 | 1.28 | kcat for Class II relative to Class I isozymes (Class II (π) ADH): 10 fold; kcat (Class II (π) ADH; Class II): 25 s⁻¹; rate of reduction relative to ethanol oxidation (Class II (π) ADH; Class II ADH): at least 8 fold; rate of reduction versus ethanol oxidation (Class I ADH; Class I isozymes, words): generally slower, but still comparable; d: ratio of specific rates for Class I ADH with IIA and IA as substrates (Class I ADH; average value): 0.27; ratio of specific rates for Class I to Class II ADH with IIA as substrate (Class I ADH; average value): 0.27
